This is an account of results in patent US7205382B2, “Peptides, the production and use thereof for binding immunoglobulins” (Fresenius Medical Care Affina GmbH, priority 2000, dated 2007).

Holding throughout (assay type): binding
Holding throughout (parameters): key: No binding of immunoglobulin for the defined peptide variant, detection negative: 0; Binding of immunoglobulin for the defined peptide variant, detection positive: +

Experiment [1] deals with serum albumin. In words: Cellulose-immobilized 13-mer peptide variants incubated with serum albumin (negative control), anti-human IgG-AP detection. The note with it: blocking buffer without addition, 3 h room temperature. The gist of the method: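 SPOT-type 13-mer peptides on cellulose with a (βA)(βA) spacer, blocked in 5% saccharose/4% BSA in T-TBS pH 8.0. Incubated 3 h at RT with human IgG-Fc (1 μg/ml) or human serum/plasma (1:10,000), or with blocking buffer alone as the albumin specificity control. Bound IgG detected with AP-anti-human IgG (1.2 μg/ml) and NBT/BCIP colorimetric development at pH 9.5.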

The test system of experiment [2] is immunoglobulins in human plasma. In words: Cellulose-immobilized 13-mer peptide variants incubated with human plasma, anti-human IgG-AP detection. The conditions noted are these: human plasma as sample, diluted 1:10,000 in blocking buffer, 3 h room temperature. The method, boiled down: (§1)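 Read-out was colorimetric NBT/BCIP staining (developing buffer pH 9.5) after alkaline phosphatase-conjugated anti-human IgG at 1.2 μg/ml. Before this, the immobilized peptides had been incubated 3 h at room temperature with 1 μg/ml IgG-Fc, 1:10,000 diluted serum, or albumin-containing blocking buffer without addition.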

Experiment [3] deals with human IgG-Fc. In words: Cellulose-immobilized 13-mer peptide variants incubated with human IgG-Fc, anti-human IgG-AP detection. The note with it: IgG-Fc 1 μg/ml in blocking buffer, 3 h room temperature. The method, boiled down:
as §1

Bridge positions count the residues as written; N and C are the ends. Ends that are not written are not given here. cellulose = not defined here; βAla = NCCC(=O)O

In the case of “10A: cellulose-bound 13-mer variant DCAWHLGELAWCT-(βA)(βA) (DCAWHLGELAWCT-{βAla-βAla-cellulose}; disulfide 2-12 (inferred); reading uncertain; also: printed as DCAWHLGELAWCT-(βA)(βA))”, in experiment [1], the “Result for incubation with serum albumin (immunoglobulin binding detection)” value (from here on “Result for incubation with serum albumin”) is on record as 0. Further, the “Result for incubation with human plasma (immunoglobulin binding detection)” value (shortened to “Result for incubation with human plasma”) in experiment [2] was found to be 0. In addition, the “Result for incubation with human IgG-Fc (immunoglobulin binding detection)” value (shortened to “Result for incubation with human IgG-Fc”) in experiment [3] is given as 0.
For the substance “11N: cellulose-bound 13-mer variant DCAWHLGELVNCT-(βA)(βA)”, in experiment [1], the “Result for incubation with serum albumin” value was determined as 0. The “Result for incubation with human plasma” value in experiment [2] came to 0. Besides, the “Result for incubation with human IgG-Fc” value in experiment [3] is recorded as 0.
In the case of “09W: cellulose-bound 13-mer variant DCAWHLGEWVWCT-(βA)(βA) (DCAWHLGEWVWCT-{βAla-βAla-cellulose}; disulfide 2-12 (inferred); reading uncertain; also: printed as DCAWHLGEWVWCT-(βA)(βA))”, the “Result for incubation with serum albumin” value in experiment [1] is on record as 0. For the same substance, in experiment [2], the “Result for incubation with human plasma” value amounted to 0. In addition, the “Result for incubation with human IgG-Fc” value in experiment [3] was found to be 0.
Consider “10S: cellulose-bound 13-mer variant DCAWHLGELSWCT-(βA)(βA) (DCAWHLGELSWCT-{βAla-βAla-cellulose}; disulfide 2-12 (inferred); reading uncertain; also: printed as DCAWHLGELSWCT-(βA)(βA))”, for which the “Result for incubation with serum albumin” value in experiment [1] is 0. Further, the “Result for incubation with human plasma” value in experiment [2] amounted to 0. Besides, the “Result for incubation with human IgG-Fc” value in experiment [3] is 0.
As for “06N: cellulose-bound 13-mer variant DCAWHNGELVWCT-(βA)(βA) (DCAWHNGELVWCT-{βAla-βAla-cellulose}; disulfide 2-12 (inferred); not fully specified (N-terminus); printed as DCAWHNGELVWCT-(βA)(βA); reading uncertain)”, the “Result for incubation with serum albumin” value in experiment [1] was 0. Moreover, in experiment [2], the “Result for incubation with human plasma” value is given as “+”. In addition, the “Result for incubation with human IgG-Fc” value in experiment [3] was “+”.
With “04D: cellulose-bound 13-mer variant DCADHLGELVWCT-(βA)(βA) (DCADHLGELVWCT-{βAla-βAla-cellulose}; disulfide 2-12 (inferred); reading uncertain; also: printed as DCADHLGELVWCT-(βA)(βA))”, in experiment [1], the “Result for incubation with serum albumin” value turned out to be 0. Besides, the “Result for incubation with human plasma” value in experiment [2] worked out at 0. For the same substance, the “Result for incubation with human IgG-Fc” value in experiment [3] stood at 0.
As to “09K: cellulose-bound 13-mer variant DCAWHLGEKVWCT-(βA)(βA) (DCAWHLGEKVWCT-{βAla-βAla-cellulose}; disulfide 2-12 (inferred); reading uncertain; also: printed as DCAWHLGEKVWCT-(βA)(βA))”, the “Result for incubation with serum albumin” value in experiment [1] turned out to be 0. Also, the “Result for incubation with human plasma” value in experiment [2] is reported as “+”. The “Result for incubation with human IgG-Fc” value in experiment [3] is “+”.
As to “03N: cellulose-bound 13-mer variant DCNWHLGELVWCT-(βA)(βA) (DCNWHLGELVWCT-{βAla-βAla-cellulose}; disulfide 2-12 (inferred); reading uncertain; also: printed as DCNWHLGELVWCT-(βA)(βA))”, the “Result for incubation with serum albumin” value in experiment [1] came to 0. Further, the “Result for incubation with human plasma” value in experiment [2] is listed as 0. Besides, the “Result for incubation with human IgG-Fc” value in experiment [3] was 0.
